Reference: patent US8765748B2, “Indazolyl, benzimidazolyl, benzotriazolyl substituted indolinone derivatives as kinase inhibitors useful in the treatment of cancer” (University Health Network, priority 2007, dated 2014)
Where two headings read alike, the source gives them in different places.

Tests used:
[1] = tested on: AMPKa; assay: Kinase Selectivity Assay (CEREP, HTRF); format: biochemical, human
Protocol: (§1) kinase, ROCK2, RSK2, Src kinase, Syk, and TRKA. The % Inhibition was determined

[2] = molecular target: Abl (Homo sapiens, UniProt P00519); assay: Kinase Selectivity Assay (CEREP, HTRF); format: biochemical; set-up: CEREP, France (ran the assays); details: read-out: % Inhibition at 10 μM Concentration, Abl
Protocol: as §1

[3] = tested on: HCT-15 colon cancer cell line; assay: Cell growth inhibition, SRB assay, extended panel; format: cell-based; details: Homo sapiens, read-out: GI50 Range, HCT-15
Protocol: (§2) Breast cancer cells (MCF-7, MDA-MB-468, HCC1954), colon cancer cells (SW620) and lung cancer cells (A549), together with human mammary epithelial primary cells (HMEC), were seeded (1000 to 4000 per 80 μl per well depending on the cell growth rate) into 96 well plates, 24 hours before compound overlay. Compounds were prepared as 10 mM stock solutions in 100% DMSO which were diluted with DMEM (Dulbecco's Modified Eagle's Medium) cell growth Medium (Invitrogen, Burlington, ON, Canada) containing 10% FBS (Fetal Bovine Serum) to concentrations ranging from 50 nM to 250 μM. Aliquots (20 μl) from each concentration were overlaid to 80 μl of the pre-seeded cells in the 96 well plates to make final concentrations of 10 nM to 50 μM. The cells were cultured for 5 days before the Sulforhodamine B assay (SRB) was performed to determine the compound's cell growth inhibition activity.
(§3) Sulforhodamine B (purchased from Sigma, Oakville, ON, Canada) is a water-soluble dye that binds to the basic amino acids of the cellular proteins. Thus, colorimetric measurement of the bound dye provides an estimate of the total protein mass that is related to the cell number. the cells are fixed in situ by gently aspirating off the culture media and adding 50 μl ice cold 10% Tri-chloroacetic Acid (TCA) per well and incubate at 4° C. for 30-60 min, The plates are washed with water five times and allowed to air dry for 5 min. Addition of 50 μl 0.4% (w/v) SRB solution in 1% (v/v) acetic acid to each well and incubatation for 30 min at RT completes the staining reaction. Following staining, plates are washed four times with 1% acetic acid to remove unbound dye and then allowed to air dry for 5 min. The stain is solubilized with 100 μl of 10 mM Tris pH10.5 per well. Absorbance is read at 570 nm.
(§4) The percentage (%) of relative growth inhibition was calculated by comparing to DMSO treated only cells (100%). GI50's were determined for compounds with cytotoxic activity. The GI50 was calculated using GraphPad PRISM software (GraphPad Software, Inc., San Diego, Calif., USA).
(§5) In addition to the cell lines tested as described above, selected compounds have been assayed against an extended panel. […] The sulforhodamine B assay (SRB) described above was use to assay test compounds against the extended panel (Table 9).

[4] = tested on: H358 lung cancer cell line; assay: Cell growth inhibition, SRB assay, extended panel; format: cell-based; details: Homo sapiens, NCI-H358, read-out: GI50 Range, H358
Protocol: as §2, §3, §4, §5

[5] = tested on: HCT116+/− colon cancer cell line; assay: Cell growth inhibition, SRB assay, extended panel; format: cell-based; details: Homo sapiens, HCT-116, read-out: GI50 Range, HCT116+/−
Protocol: as §2, §3, §4, §5

[6] = tested on: PC-3 prostate cancer cell line; assay: Cell growth inhibition, SRB assay, extended panel; format: cell-based; details: read-out: GI50 Range, PC-3
Protocol: as §2, §3, §4, §5

[7] = tested on: A172 brain cancer cell line; assay: Cell growth inhibition, SRB assay, extended panel; format: cell-based; details: Homo sapiens, A 172, read-out: GI50 Range, A172
Protocol: as §2, §3, §4, §5

[8] = tested on: MDA-MB-231 breast cancer cell line; assay: Cell growth inhibition, SRB assay, extended panel; format: cell-based; details: Homo sapiens, read-out: GI50 Range, MDA-MB-231
Protocol: as §2, §3, §4, §5

[9] = tested on: SK-N-SH brain cancer cell line; assay: Cell growth inhibition, SRB assay, extended panel; format: cell-based; details: Homo sapiens, read-out: GI50 Range, SK-N-SH
Protocol: as §2, §3, §4, §5

[10] = tested on: SW 626 ovarian cancer cell line; assay: Cell growth inhibition, SRB assay, extended panel; format: cell-based; details: Homo sapiens, SW626, read-out: GI50 Range, SW 626
Protocol: as §2, §3, §4, §5

[11] = tested on: HS578T breast cancer cell line; assay: Cell growth inhibition, SRB assay, extended panel; format: cell-based; details: Homo sapiens, Hs-578T, read-out: GI50 Range, HS578T
Protocol: as §2, §3, §4, §5

[12] = molecular target: T1, PDGFRβ (Homo sapiens, UniProt P09619); assay: Millipore kinase assay, radiolabelled phosphopeptide filter binding, IC50 estimate; format: biochemical; details: estimated from inhibition at three compound concentrations; ATP at the Km
T1 construct: purchased Millipore (assay service)
Protocol: (§6) Kinase assays at Millipore were performed using a radiolabelled phosphopeptide filter binding detection system, in duplicate, at each compound concentration. The ATP substrate concentration in the reactions was at the Km for each enzyme.
(§7) To allow for a more direct comparison of compound inhibition, an IC50 value was estimated from the inhibition determined at three compound concentrations. Several assumptions were made to allow this calculation using a 4 parameter non linear curve fit model, including full inhibition set at 100%, no inhibition set to 0%, and a curve fit parameter set at 1. The inflection point was reported as the estimated IC50.

[13] = molecular target: FGFR1; assay: as above; format: biochemical; details: estimated from inhibition at three compound concentrations; ATP at the Km
Protocol: as §6, §7

[14] = molecular target: T2, FLT-1 (Homo sapiens, UniProt P17948); assay: as above; format: biochemical; details: estimated from inhibition at three compound concentrations; ATP at the Km
T2 construct: purchased Millipore (assay service)
Protocol: as §6, §7

[15] = tested on: MDA-MB-468 basal breast cancer cell line; assay: Cell growth inhibition, Sulforhodamine B assay (SRB); format: cell-based; details: Homo sapiens, MDA-MB-468, 120 h; 5 days culture, SRB; read-out: Cell Line GI50 Range, MDA-MB-468
Method in brief: (§8)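 Cells seeded 24 h before compound addition, then exposed to 10 nM–50 μM final compound in DMEM + 10% FBS for 5 days. Growth measured by TCA fixation, SRB staining and absorbance at 570 nm; % inhibition relative to DMSO-only cells, with GI50 fitted for cytotoxic compounds.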

[16] = tested on: MCF-7 luminal breast cancer cell line; assay: as above; format: cell-based; details: Homo sapiens, MCF7, 120 h; 5 days culture, SRB; read-out: Cell Line GI50 Range, MCF-7
Method in brief: as §8

[17] = tested on: HCC1954 basal breast cancer cell line; assay: as above; format: cell-based; details: Homo sapiens
Method in brief: as §8

[18] = tested on: SW620 colon cancer cells; assay: as above; format: cell-based; details: Homo sapiens, SW-620, 120 h, 5 days culture, read-out: Cell Line GI50 Range, SW-620
Method in brief: as §8

[19] = tested on: human mammary epithelial primary cells (HMEC); assay: as above; format: cell-based; details: 120 h, 5 days culture, read-out: Cell Line GI50 Range, HMEC
Method in brief: as §8

[20] = tested on: A549 lung cancer cells; assay: as above; format: cell-based; details: Homo sapiens, A549, 120 h, 5 days culture, read-out: Cell Line GI50 Range, A-549
Method in brief: as §8

[21] = HCC1954, 120 h, 5 days culture, read-out: Cell Line GI50 Range, HCC-1954
[22] = HCC1954, extended panel (Table 9), read-out: GI50 Range, HCC1954

T1 sequence (P09619 33-1106): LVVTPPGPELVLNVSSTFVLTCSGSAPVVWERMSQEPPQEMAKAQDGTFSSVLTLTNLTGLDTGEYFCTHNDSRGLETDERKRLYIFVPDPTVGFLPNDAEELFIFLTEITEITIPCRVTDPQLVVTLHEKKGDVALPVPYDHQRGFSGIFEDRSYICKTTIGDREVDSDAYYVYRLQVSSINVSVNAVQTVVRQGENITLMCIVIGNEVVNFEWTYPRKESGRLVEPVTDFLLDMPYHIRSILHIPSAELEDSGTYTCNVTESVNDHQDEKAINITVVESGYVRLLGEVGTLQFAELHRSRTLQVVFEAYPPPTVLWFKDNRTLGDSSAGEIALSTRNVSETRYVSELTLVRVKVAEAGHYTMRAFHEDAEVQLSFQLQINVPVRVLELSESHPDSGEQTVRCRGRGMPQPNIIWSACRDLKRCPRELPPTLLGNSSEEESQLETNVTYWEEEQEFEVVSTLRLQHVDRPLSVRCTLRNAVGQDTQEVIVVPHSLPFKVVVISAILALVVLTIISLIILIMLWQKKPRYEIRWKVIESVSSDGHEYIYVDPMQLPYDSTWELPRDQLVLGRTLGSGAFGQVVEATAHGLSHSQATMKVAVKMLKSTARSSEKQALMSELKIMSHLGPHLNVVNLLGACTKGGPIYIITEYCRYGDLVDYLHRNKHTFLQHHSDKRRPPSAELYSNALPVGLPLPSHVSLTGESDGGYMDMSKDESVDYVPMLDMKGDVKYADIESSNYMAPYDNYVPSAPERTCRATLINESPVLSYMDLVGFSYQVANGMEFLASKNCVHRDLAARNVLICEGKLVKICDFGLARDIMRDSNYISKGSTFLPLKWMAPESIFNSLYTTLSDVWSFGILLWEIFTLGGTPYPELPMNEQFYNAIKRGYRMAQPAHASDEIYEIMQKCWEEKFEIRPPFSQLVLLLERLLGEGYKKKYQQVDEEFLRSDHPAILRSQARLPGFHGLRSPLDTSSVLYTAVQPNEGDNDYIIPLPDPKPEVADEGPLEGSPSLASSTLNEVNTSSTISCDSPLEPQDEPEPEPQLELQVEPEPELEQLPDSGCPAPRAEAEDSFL
T2 sequence (P17948 27-1338): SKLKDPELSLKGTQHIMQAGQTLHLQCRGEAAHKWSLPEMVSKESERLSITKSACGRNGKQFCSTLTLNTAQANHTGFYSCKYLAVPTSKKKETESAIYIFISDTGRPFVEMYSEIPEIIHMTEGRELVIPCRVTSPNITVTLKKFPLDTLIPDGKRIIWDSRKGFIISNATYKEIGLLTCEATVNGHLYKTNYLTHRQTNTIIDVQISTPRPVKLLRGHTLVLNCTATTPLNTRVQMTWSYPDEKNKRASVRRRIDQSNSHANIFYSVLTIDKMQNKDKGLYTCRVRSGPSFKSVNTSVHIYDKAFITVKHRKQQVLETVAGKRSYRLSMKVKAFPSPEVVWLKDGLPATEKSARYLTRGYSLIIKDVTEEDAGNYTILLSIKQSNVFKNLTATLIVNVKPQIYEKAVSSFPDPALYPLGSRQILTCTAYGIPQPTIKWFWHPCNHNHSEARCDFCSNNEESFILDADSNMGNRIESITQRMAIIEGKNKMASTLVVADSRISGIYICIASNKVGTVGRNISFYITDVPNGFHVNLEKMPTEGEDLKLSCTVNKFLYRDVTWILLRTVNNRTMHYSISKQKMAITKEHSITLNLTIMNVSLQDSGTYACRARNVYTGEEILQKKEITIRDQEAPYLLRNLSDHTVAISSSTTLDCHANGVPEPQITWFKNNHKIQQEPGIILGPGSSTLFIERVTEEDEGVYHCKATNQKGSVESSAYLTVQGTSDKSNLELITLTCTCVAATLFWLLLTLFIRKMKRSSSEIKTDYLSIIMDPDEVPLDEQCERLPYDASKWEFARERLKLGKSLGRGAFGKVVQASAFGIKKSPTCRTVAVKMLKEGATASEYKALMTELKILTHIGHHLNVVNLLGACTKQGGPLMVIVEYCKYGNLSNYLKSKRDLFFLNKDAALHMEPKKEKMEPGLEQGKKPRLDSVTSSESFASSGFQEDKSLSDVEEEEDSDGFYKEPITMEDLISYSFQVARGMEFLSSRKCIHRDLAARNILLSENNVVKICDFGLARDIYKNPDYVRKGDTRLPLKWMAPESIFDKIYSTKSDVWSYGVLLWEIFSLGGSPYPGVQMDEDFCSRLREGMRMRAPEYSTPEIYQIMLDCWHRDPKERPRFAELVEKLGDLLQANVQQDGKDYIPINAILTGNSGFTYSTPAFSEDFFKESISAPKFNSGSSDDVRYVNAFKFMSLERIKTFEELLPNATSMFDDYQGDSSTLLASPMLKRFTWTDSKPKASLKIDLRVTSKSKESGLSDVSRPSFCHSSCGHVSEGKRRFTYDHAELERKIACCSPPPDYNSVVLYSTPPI
Sequence of Abl (P00519 whole entry): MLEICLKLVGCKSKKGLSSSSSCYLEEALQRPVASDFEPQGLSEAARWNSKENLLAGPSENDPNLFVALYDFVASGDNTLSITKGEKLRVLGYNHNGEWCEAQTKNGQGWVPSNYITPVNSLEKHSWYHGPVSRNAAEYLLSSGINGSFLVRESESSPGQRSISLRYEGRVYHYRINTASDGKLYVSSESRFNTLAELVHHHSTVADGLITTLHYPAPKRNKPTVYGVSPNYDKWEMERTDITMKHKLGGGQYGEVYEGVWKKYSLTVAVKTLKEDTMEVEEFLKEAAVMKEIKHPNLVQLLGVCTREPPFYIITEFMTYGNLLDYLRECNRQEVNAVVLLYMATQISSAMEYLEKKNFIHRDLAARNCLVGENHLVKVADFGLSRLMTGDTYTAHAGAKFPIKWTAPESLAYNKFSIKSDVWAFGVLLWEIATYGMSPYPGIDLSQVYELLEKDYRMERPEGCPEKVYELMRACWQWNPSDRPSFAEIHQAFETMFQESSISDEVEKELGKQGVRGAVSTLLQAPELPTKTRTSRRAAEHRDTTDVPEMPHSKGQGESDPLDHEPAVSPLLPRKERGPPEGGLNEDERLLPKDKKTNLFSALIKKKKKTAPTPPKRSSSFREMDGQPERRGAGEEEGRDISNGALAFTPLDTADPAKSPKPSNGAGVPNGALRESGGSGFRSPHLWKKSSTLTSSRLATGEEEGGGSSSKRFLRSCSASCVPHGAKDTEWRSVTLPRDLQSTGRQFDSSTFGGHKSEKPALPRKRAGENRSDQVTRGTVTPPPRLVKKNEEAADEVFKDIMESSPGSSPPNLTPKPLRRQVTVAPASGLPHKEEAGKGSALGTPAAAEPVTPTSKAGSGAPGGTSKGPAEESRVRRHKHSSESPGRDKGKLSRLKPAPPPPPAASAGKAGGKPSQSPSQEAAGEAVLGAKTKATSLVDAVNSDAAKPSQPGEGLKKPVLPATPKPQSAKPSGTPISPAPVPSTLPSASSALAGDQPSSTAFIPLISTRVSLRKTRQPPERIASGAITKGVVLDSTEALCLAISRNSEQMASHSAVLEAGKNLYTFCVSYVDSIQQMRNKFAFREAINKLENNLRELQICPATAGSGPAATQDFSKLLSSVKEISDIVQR

SMILES | % Inhibition at 10 μM Concentration, AMPKalpha [1] | inhibition at 10 µM [2] | GI50 [3] | GI50 [4] | GI50 [5] | GI50 [6] | GI50 [7] | GI50 [8] | GI50 [9] | GI50 [10] | GI50 [11] | IC50 [12] | IC50 [13] | GI50 [15] | GI50 [16] | GI50 [17, 21] | GI50 [17, 22] | GI50 [18] | GI50 [19] | GI50 [20] | also measured
O=C1Nc2ccccc2C1=Cc1ccc2c(/C=C/c3ccccn3)n[nH]c2c1 (mixture of isomers) [Example A41, (E and Z)-3-((3-((E)-2-(pyridin-2-yl)vinyl)-1H-indazol-6-yl)methylene)indolin-2-one] | 81% | 100% | < 5 µM | < 5 µM | > 50 µM | 20 to 50 µM | < 5 µM | 5 to 20 µM | < 5 µM | > 50 µM | 5 to 20 µM | < 5 µM | < 5 µM | < 5 µM | < 5 µM | 20 to 50 µM | < 5 µM | 5 to 20 µM | > 50 µM | 5 to 20 µM | IC50 [14]: < 5 µM
COc1ccc2c(c1)C(=Cc1ccc3c(-c4ccc(N5CCN(C)CC5)nc4)n[nH]c3c1)C(=O)N2 (mixture of isomers) [Example A97, (E and Z)-5-methoxy-3-((3-(6-(4-methylpiperazin-1-yl)pyridin-3-yl)-1H-indazol-6-yl)methylene)indolin-2-one] | 76% | 99% |  |  | < 5 µM |  |  | < 5 µM |  |  | < 5 µM | 5 to 50 µM | < 5 µM | < 5 µM | < 5 µM | < 5 µM | < 5 µM | < 5 µM | 20 to 50 µM | < 5 µM | IC50 [14]: < 5 µM
CN(C)Cc1ccc(/C=C/c2n[nH]c3cc(C=C4C(=O)Nc5ccccc54)ccc23)cc1 (mixture of isomers) [Example A106, (E and Z)-3-[(3-{(E)-2-[4-((dimethylamino)methyl)-phenyl]-ethenyl}-1H-indazol-6-yl)methylidene]-1,3-dihydro-2H-indol-2-one 2,2,2-trifluoroacetate] |  |  |  |  |  |  |  |  |  |  |  | < 5 µM | < 5 µM | < 5 µM | < 5 µM | < 5 µM |  | < 5 µM | 5 to 20 µM | < 5 µM | IC50 [14]: < 5 µM
CN1CCN(c2ccc(/C=C/c3n[nH]c4cc(C=C5C(=O)Nc6ccccc65)ccc34)cn2)CC1 (mixture of isomers) [Example A108, (E and Z)-3-((3-((E)-2-(6-(4-methylpiperazin-1-yl)pyridin-3-yl)vinyl)-1H-indazol-6-yl)methylene)indolin-2-one] |  |  | < 5 µM | < 5 µM | < 5 µM | < 5 µM | < 5 µM | < 5 µM | < 5 µM | < 5 µM | < 5 µM |  |  | < 5 µM | < 5 µM | < 5 µM | < 5 µM | < 5 µM | < 5 µM | < 5 µM | 
O=C1Nc2ncc(Br)cc2C1=Cc1ccc2c(/C=C/c3ccncc3)n[nH]c2c1 (mixture of isomers) [Example A109, (E and Z)-5-bromo-3-((3-((E)-2-(pyridin-4-yl)vinyl)-1H-indazol-6-yl)methyl-ene)-1H-pyrrolo[2,3-b]pyridin-2(3H)-one] |  |  | < 5 µM | < 5 µM | < 5 µM | < 5 µM | < 5 µM | < 5 µM | < 5 µM | 5 to 20 µM | < 5 µM |  |  | < 5 µM | < 5 µM | > 50 µM | > 50 µM | < 5 µM | > 50 µM | < 5 µM | 
O=C1Nc2ccccc2/C1=C\c1ccc2[nH]nnc2c1 [Example A1, (E)-3-((1H-benzo[d][1,2,3]triazol-5-yl)methylene)indolin-2-one] | 15% | 34% |  |  |  |  |  |  |  |  |  |  |  |  |  |  |  |  |  |  | 
O=C1Nc2ccccc2/C1=C\c1ccc2cn[nH]c2c1 [Example A5, (E)-3-((1H-indazol-6-yl)methylene)indolin-2-one] | 54% | 24% |  |  |  |  |  |  |  |  |  |  |  |  |  |  |  |  |  |  | 
O=C1Nc2ccccc2/C1=C\c1ccc2c(/C=C/c3ccccc3Cl)n[nH]c2c1 [Example A60, (E)-3-((3-((E)-2-chlorostyryl)-1H-indazol-6-yl)methylene)indolin-2-one] | 8% | 40% |  |  |  |  |  |  |  |  |  |  |  |  |  |  |  |  |  |  | 
